The values that follow are results of earlier work, collected in patent US20030021750A1, “Novel functional agents for magnetic resonance imaging” (priority 2001, published 2003).

The conditions of the data set: thermodynamic stability of the Gd3+ chelate; background statement.

Consider `O=C([O-])CN(CCN(CC(=O)[O-])CC(=O)[O-])CCN(CC(=O)[O-])CC(=O)[O-].[Gd+3]` [Gd(DTPA)^2−], for which the “stability constant (K) / formation constant, logK” value is on record as 22.4.

With `O=C([O-])CN1CCN(CC(=O)[O-])CCN(CC(=O)[O-])CCN(CC(=O)[O-])CC1.[Gd+3]` [Gd-DOTA], the “stability constant (K) / formation constant, logK” value was 28.5.
